{
  "source": "patent US20150017636A1",
  "about": "“Detection and Monitoring of Macrocyclic Lactone Resistance in Nematodes” (priority 2013, published 2015)",
  "key": {"Haemonchus contortus": {"system": "Haemonchus contortus", "conditions": "cited from earlier work"}, "C. elegans IVR10 strain": {"system": "C. elegans IVR10 strain", "test": "Rescue of Dyf7 gene in IVR10: ivermectin sensitivity of transgenic worms on NGM plates", "format": "in vivo, Caenorhabditis elegans", "conditions": "Dyf7 ttx 1 and Dyf7 ttx 2 strains (IVR10 with wildtype Dyf7 transgene), 6 ng/mL ivermectin, plated as eggs, scored at two days", "procedure": "FIG. 2 illustrates the rescue of Dyf7 gene in C. elegans IVR10 strain. Effect of Dyf7 rescued (strains Dyf7 ttx 1 and Dyf7 ttx 2) on ivermectin sensitivity. Strains “ttx ctrl 1” and “ttx ctrl 2” contain only the ttx-3:GFP transgenic marker. Results are shown as the percentage of growth of transgenic nematodes (as measured by GFP expression) in function of the type of transgenic nematode and treatment.\nThe wild-type Bristol N2 C. elegans strain was cultured in nematode growth medium (NGM) with OP50 Escherichia coli under standard conditions (Brenner, 1974). The IVR6 and IVR10 resistant strains to ivermectin were derived from Bristol N2, by successive increasing concentrations of ivermectin (James and Davey, 2009). […]\nGenomic DNA extracted from C. elegans C43C3 cosmid (provided by the Sanger Institute, UK) was used to amplify the Dyf7 gene using the primers Dyf7-CeB-sense-5′-[…]-3′ (SEQ ID NO: 3) and Dyf7-CeB-antisense-5′-CTCATTTCTGGTCAAACG-3′ (SEQ ID NO: 4). […] The worms were separated into transgenic and non-transgenic based on GFP expression (green channel) and then each population scored for resistance phenotype.\nTo determine if the Dyf7 rescuing fragment rescues the ivermectin-sensitivity phenotype of IVR10, each strain was plated, as eggs, onto NGM plates containing 6 ng/mL ivermectin and DMSO control plates. At two days, the L4 and adult worms were scored for presence of the transgene. […]"}},
  "note": "Like-named read-outs stand apart in the source and are kept apart here.",
  "data": [
    {"substance": "ivermectin", "values": [
      {"measurement": "IVM Drug Phenotype", "setting": "Haemonchus contortus; isolate 1202, Brazil", "result": "Resistant"},
      {"measurement": "IVM Drug Phenotype", "setting": "Haemonchus contortus; isolate CRA, RSA", "result": "Susceptible"},
      {"measurement": "IVM Drug Phenotype", "setting": "Haemonchus contortus; isolate Cedara, RSA", "result": "Resistant"},
      {"measurement": "IVM Drug Phenotype", "setting": "Haemonchus contortus; isolate Coruzu, Argentina", "result": "Resistant"},
      {"measurement": "IVM Drug Phenotype", "setting": "Haemonchus contortus; isolate F15, Brazil", "result": "Resistant"},
      {"measurement": "IVM Drug Phenotype", "setting": "Haemonchus contortus; isolate Haecon, Australia", "result": "Resistant"},
      {"measurement": "IVM Drug Phenotype", "setting": "Haemonchus contortus; isolate Howick, RSA", "result": "Resistant"},
      {"measurement": "IVM Drug Phenotype", "setting": "Haemonchus contortus; isolate ISE, UK", "result": "Susceptible"},
      {"measurement": "IVM Drug Phenotype", "setting": "Haemonchus contortus; isolate Kokstad, RSA", "result": "Resistant"},
      {"measurement": "IVM Drug Phenotype", "setting": "Haemonchus contortus; isolate MOF23, USA", "result": "Moderate Resistant"},
      {"measurement": "IVM Drug Phenotype", "setting": "Haemonchus contortus; isolate MOF23-9*, USA, 23 generations of moxidectin selection", "result": "Resistant"},
      {"measurement": "IVM Drug Phenotype", "setting": "Haemonchus contortus; isolate PF23, USA", "result": "Susceptible"},
      {"measurement": "IVM Drug Phenotype", "setting": "Haemonchus contortus; isolate PF23-24, USA", "result": "Susceptible"},
      {"measurement": "IVM Drug Phenotype", "setting": "Haemonchus contortus; isolate Rog-gliswil, Switzerland", "result": "Resistant"},
      {"measurement": "IVM Drug Phenotype", "setting": "Haemonchus contortus; isolate SUL, Uruguay", "result": "Resistant"},
      {"measurement": "IVM Drug Phenotype", "setting": "Haemonchus contortus; isolate Sorin, France", "result": "Susceptible"},
      {"measurement": "IVM Drug Phenotype", "setting": "Haemonchus contortus; isolate Wallangra 85, Australia", "result": "Susceptible"},
      {"measurement": "IVM Drug Phenotype", "setting": "Haemonchus contortus; isolate Yallanbee, Australia", "result": "Susceptible"},
      {"measurement": "IVM phenotype of the strain", "setting": "Haemonchus contortus; strain IVF23, ivermectin selected from the PF strain", "result": "resistant"},
      {"measurement": "growth of transgenic worms (escape from L1 arrest, L4 and adult worms scored for the transgene)", "setting": "C. elegans IVR10 strain", "result": "no transgenic worms that escaped L1 arrest"}
    ]}
  ]
}
